From article PMC7394103 (Frontiers in Pharmacology, 2020)

Tests used:
AChE = target: T1, AChE (Homo sapiens, UniProt P22303); assay: AChE inhibition assay (Ellman-based kit); format: biochemical; settings: concentration causing 30% inhibition
T1 construct: purchased Sigma-Aldrich
Protocol: The inhibitory effect of test compounds on AChE activity was performed using an AChE inhibitor screening kit from Sigma-Aldrich. The kit is based on an improved Ellman method, whereby thiocholine produced from AChE activity forms a yellow color with 5,5’-dithiobis(2-nitrobenzoic acid), and the intensity the color (412 nm) is proportional to enzyme activity. […] IC30 was obtained by graphing the % inhibition of enzyme activity versus the logarithm of concentration of test compound using 5–7 tested concentrations.

IL-6 secretion by FLS = assay: IL-1β-induced IL-6 secretion by FLS (ELISA); format: cell-based; settings: Homo sapiens; 30 min compound, then 5 ng/ml IL-1β, 24 h
Description: This study was approved by the Institutional Review Board of University of California, San Diego School of Medicine (La Jolla, CA, USA). Informed consent was obtained from all participants. Anonymous synovial tissue samples were obtained from six patients with RA at the time of total joint replacement (5 females, 1 male; age range, 44–72 years), as previously described ([Alvaro-Gracia et al., 1990]). The diagnosis of RA conformed to American College of Rheumatology 1987 revised criteria ([Arnett et al., 1988]). The synovium was minced and incubated with collagenase type VIII (0.5 mg/ml) (Sigma-Aldrich) in serum-free RPMI-1640 (Life Technologies, Grand Island, NY, USA) for 2 h at 37°C, filtered, extensively washed, and cultured in DMEM (Life Technologies) supplemented with 10% FBS (Gemini Bio Products, Calabasas, CA, USA), penicillin, streptomycin, gentamicin, and glutamine in a humidified 5% CO2 atmosphere. […]
FLS, HUVEC, SW982, and THP-1 cells were plated in 96 well plates (10^4 to 10^5 cells/well) for 48 h before treatment. […] The levels of MMP-1 and MMP-3 were determined in culture supernatants using commercially available ELISA kits according to the manufacturer’s instructions (R&D System, Minneapolis, MN, USA). IL-6 levels were also determined in the supernatants using a human IL-6 ELISA kit (BD Biosciences, San Jose, CA, USA).

MMP-1 secretion by HUVEC = assay: IL-1β-induced MMP-1 secretion by HUVEC (ELISA); format: cell-based; settings: Homo sapiens, 30 min compound, then 5 ng/ml IL-1β, 24 h
Protocol: FLS, HUVEC, SW982, and THP-1 cells were plated in 96 well plates (10^4 to 10^5 cells/well) for 48 h before treatment. At 2 days post-confluency, the cells were serum-starved and washed twice (with the exception of THP-1 cell, which were not washed) with FBS-free medium prior to the addition of test compounds. The cells were incubated in the presence or absence of test compounds or DMSO (vehicle control) for 30 min at 37°C in a 5% CO2 atmosphere, IL-1β (5 ng/ml) was added, and the cells were incubated for an additional 24 h. Culture supernatants were collected and stored at –80°C. The levels of MMP-1 and MMP-3 were determined in culture supernatants using commercially available ELISA kits according to the manufacturer’s instructions (R&D System, Minneapolis, MN, USA). IL-6 levels were also determined in the supernatants using a human IL-6 ELISA kit (BD Biosciences, San Jose, CA, USA).

[1] = test system: c-Jun phosphorylation in FLS; assay: c-Jun phosphorylation in IL-1β-stimulated FLS (Western blot); format: cell-based, human; settings: 1 h pretreatment, 2 ng/ml IL-1β 15 min
Protocol: Cultured FLS (passage 4) were plated at 2 × 10^5 cells in six-well plates overnight in DMEM containing 10% FBS and synchronized for 24 h in DMEM/0.1% FBS. […] The cells were then washed once with ice-cold PBS and lysed with modified radioimmunoprecipitation assay buffer [50 mM HEPES, pH 7.4, 150 mM NaCl, 1% Triton X-100, 10% glycerol, 2.5 mM MgCl2, 1.0 mM EDTA, 20 mM β-glycerophosphate, 10 mM NaF, 1 mM Na3VO4, and Protease inhibitor cocktail (Roche, Indianapolis, IN)]. Protein concentration of the lysates was measured using a MicroBCA Assay kit (Pierce, Rockford, IL), and 40 μg lysate was subjected to 10% SDS-PAGE and Western blot analysis. Anti–phospho-c-Jun (Ser63) was purchased from Cell Signaling Technology (Danvers, MA), and anti-mouse GAPDH was from Santa Cruz Biotechnology (Santa Cruz, CA).

CAIA in BALB/c mice = assay: Collagen-antibody-induced arthritis (CAIA), clinical score and histopathology; format: in vivo; settings: for CAIA joint histopathology / severity of CAIA (mean arthritis score): 30 mg/kg i.p. daily; for CAIA joint histopathology: day 1 to 9, vs saline; for severity of CAIA (mean arthritis score): day 1 to 9, vs vehicle; for therapeutic effect in CAIA compared to IQ-1S: 30 mg/kg i.p., days 6 and 7
Protocol: CAIA was induced in 7- to 8-week-old BALB/c mice from Charles River Laboratories (Wilmington, MA, USA) by i.p. injection of a cocktail of monoclonal anti-CII antibodies (Chondrex; 1.5 mg/mouse) on day 0, followed by i.p. lipopolysaccharide (LPS) injection (30 μg LPS from Escherichia coli strain 0111:B4 in PBS) on day 3. Control animals received an equal volume of PBS.
Arthritis development was evaluated daily for 10 days post-injection of the monoclonal antibody cocktail. Arthritis symptoms were scored on scale of 0 to 4 in accordance with the Chondrex Mouse Arthritis Scoring System in a blinded manner, as follows: 0, no signs of inflammation; 1, mild redness or swelling of single joint (one of the interphalangeal joints, metacarpophalangeal joints, carpal joint for the front paw, and tarsal joint for the hind); 2, two joints have redness and swelling; 3, all three joint types have redness and swelling; 4, maximal redness and swelling of entire paw leads to the disappearance of anatomical definition.
In CAIA, animals were sacrificed on day 14, and their forward and hind limbs were processed as described above. Three sections in the sagittal projection of joints, 40 µm apart, were examined by the same system with the grades ranging 0 to 4. Total H&E histopathological score for three sections included cartilage destruction, pannus formation, and synovial cells changes. For cartilage destruction, the scale was: 0—normal, superficial zone is smooth; 1—superficial fibrillations, some loss of surface lamina; 2—vertical clefts/erosion to the calcified cartilage up to 25% of the surface; 3—vertical clefts/erosion to the calcified cartilage 25% to 50% of the surface, 4—vertical clefts/erosion to the calcified cartilage more than 50% of the surface, severe chondrocytes, and cartilage matrix loss with new bone tissue substitution. For pannus formation the scale was: 0—normal; 1—exudate in the joint; 2—single inflammatory cells in the exudate; 3—mild infiltration of the inflammatory cells; 4—heavy inflammatory infiltration and debris in the joint. For synovial membrane changes the scale was: 0 – normal, 1 to 2 layer of synovial lining cells; 1—initial hyperplasia of the cells and increased number of lining cells layers; 2—increased number of lining cell layers, more than 3 to 4 layers and/or proliferation of sub-synovial tissue; 3—more than 4 layers of lining cells, focal infiltration of inflammatory cells, proliferation of subsynovial tissue; 4—more than four layers of lining cells, diffused infiltration of inflammatory cells, proliferation of sub-synovial tissue.

T1 sequence (P22303 32-614): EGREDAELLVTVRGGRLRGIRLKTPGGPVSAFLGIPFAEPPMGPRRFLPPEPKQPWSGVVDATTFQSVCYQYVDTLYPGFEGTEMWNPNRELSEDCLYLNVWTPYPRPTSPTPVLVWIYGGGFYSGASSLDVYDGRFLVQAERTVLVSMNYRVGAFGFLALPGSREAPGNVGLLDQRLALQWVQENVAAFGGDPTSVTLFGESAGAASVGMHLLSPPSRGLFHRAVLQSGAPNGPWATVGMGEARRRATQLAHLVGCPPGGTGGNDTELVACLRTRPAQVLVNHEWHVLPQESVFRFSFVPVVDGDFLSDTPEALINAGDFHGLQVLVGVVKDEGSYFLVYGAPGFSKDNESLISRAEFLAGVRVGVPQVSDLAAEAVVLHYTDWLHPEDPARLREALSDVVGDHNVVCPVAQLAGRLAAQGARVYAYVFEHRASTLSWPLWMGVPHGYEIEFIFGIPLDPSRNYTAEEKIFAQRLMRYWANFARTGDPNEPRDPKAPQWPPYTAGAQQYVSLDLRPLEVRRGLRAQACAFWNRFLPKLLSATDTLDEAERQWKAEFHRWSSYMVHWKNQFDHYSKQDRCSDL

**Q.** With `O=C1c2ccccc2-n2c1nc1ccccc1c2=O` [TRYP, indolo[2,1-b]quinazolin-6,12-dione] as the compound, how does the “AChE inhibition IC30” value (AChE) read?
**A.** The value was 4.2 ± 1.2 µM.

**Q.** And the IC50 (IL-6 secretion by FLS)?
**A.** The IC50 was 14.8 ± 1.8 µM.

**Q.** And the IC50 (MMP-1 secretion by HUVEC)?
**A.** Its IC50 is 3.4 ± 1.1 µM.

**Q.** And the c-Jun phosphorylation [1]?
**A.** Its c-Jun phosphorylation is “had no effect”.

**Q.** What about the CAIA joint histopathology (CAIA in BALB/c mice) of the same compound?
**A.** Its CAIA joint histopathology is “little cartilage erosion, synovial hyperplasia, or cellular infiltration”.

**Q.** What about the “severity of CAIA (mean arthritis score)” value (CAIA in BALB/c mice) of the same compound?
**A.** The value was “significant reductions in the severity of CAIA”.

**Q.** What about the “therapeutic effect in CAIA compared to IQ-1S” value (CAIA in BALB/c mice) of the same compound?
**A.** Its value is “significantly greater”.

**Q.** `O=c1c2ccccc2nc2n1-c1ccccc1/C2=N/O` [TRYP-Ox, tryptanthrin-6-oxime] was tested. Which “AChE inhibition IC30” value (AChE) did it give?
**A.** Its value is 12.0 ± 3.9 µM.

**Q.** What about the IC50 (IL-6 secretion by FLS) of the same compound?
**A.** The IC50 was 7.4 ± 1.2 µM.

**Q.** What about the IC50 (MMP-1 secretion by HUVEC) of the same compound?
**A.** Its IC50 is 2.9 ± 0.1 µM.

**Q.** And the c-Jun phosphorylation [1]?
**A.** The c-Jun phosphorylation was “inhibited c-Jun phosphorylation”.

**Q.** And the CAIA joint histopathology (CAIA in BALB/c mice)?
**A.** Its CAIA joint histopathology is “little cartilage erosion, synovial hyperplasia, or cellular infiltration”.

**Q.** And the “severity of CAIA (mean arthritis score)” value (CAIA in BALB/c mice)?
**A.** Its value is “significant reductions in the severity of CAIA”.

**Q.** And the “therapeutic effect in CAIA compared to IQ-1S” value (CAIA in BALB/c mice)?
**A.** Its value is “significantly greater”.
